The source of these data is patent US20080299060A1, “Pharmaceutical Composition for the Treatment of Nail Diseases” (TLT MEDICAL LTD., priority 2006, published 2008).

This data set is described as follows: In-vitro nail permeation assay (Franz type diffusion cells). Type of data set: in vitro ADME, human. The following applies: for Mean value of terbinafine concentration in the 5 mL receptor chamber of the Franz cell, Day 3 / Mean value of terbinafine concentration in the 5 mL receptor chamber of the Franz cell, Day 5: n=3. From the text: Permeation fluxes of active substances, determined from nail permeation assays, are used to predict the efficacy of the active substances in a clinical situation. A permeation assay similar to the one reported by Franz (T. J. Franz, Dermatology, 184, 18-20, 1992) was used to investigate the applicability of the present invention to the treatment of onychomycosis and, in particular, to evaluate the permeation fluxes of a terbinafine containing pharmaceutical composition and a protective layer in laser pre-treated human cadaver great toenails. The experimental setup emulates the clinical situation where the pharmaceutical composition remains liquid for an extended period of time inside the nail holes in the case of laser pretreated nails to maximize the diffusion of the terbinafine into the nail.
Human cadaver great toenails selected for the tests were soaked in physiological buffer solution for several hours before starting the assay. Nails were prepared for the assay by removal of epidermal residues on the ventral side. Round nail discs of 16 mm in diameter were punched. […] Nails were masked on the dorsal side by a silicon mounting ring leaving a nail area of 10 mm in diameter where the nails were exposed to the pharmaceutical composition and the protective layer.
Three groups of nail samples were investigated.
Group 1: Untreated nail samples were used in this group which is the control group. These nails were exposed to 25 μL of a lacquer containing 9% w/w terbinafine once a day.
Group 2: In this group perforated nails were used. These nails were exposed to 25 μL of a 10% w/w terbinafine in ethanol solution once a day. After the application of the 10% w/w ethanolic solution to these nails, nails were covered with 25 μL of a lacquer containing 9% w/w terbinafine to form the protective layer according to the present invention.
Group 3: In this group perforated nails were used. These nails were exposed to 25 μL of a 10% w/w terbinafine in ethanol solution once a day. After the application of the 10% w/w ethanolic solution to these nails, these nails were covered with 25 μL of a lacquer without terbinafine to form the protective layer according to the present invention.
Franz type diffusion cells made of glass were used in the assays having a volume of ca. 5 mL using demineralized water as receptor buffer. Nail samples were fixed on the Franz cells with sealing silicone and Teflon discs pressed with a metallic spring loading system. In this way the ventral sides of the nails were in contact with demineralized water in the cell while the dorsal sides were in contact with the pharmaceutical formulations and protective layer according to Table 1. Diffusion cells were kept at 32° C. during the permeation assays.
Cleaning of the nail sample and dissolution of previous layers of pharmaceutical composition and protective layers were performed prior to every reapplication of the pharmaceutical composition and the protective layer. For this purpose 100 microliters of dissolvent were applied to every nail sample. Subsequently, the nail samples were rubbed with a cleaning brush to ensure an exhaustive cleaning and then were dried with a cotton swab to remove with the dissolvent also the old components of the pharmaceutical solution and the protective layer. 25 microliters of the pharmaceutical composition were then applied to the exposed nail area and distributed with the application brush.
Samples of receptor fluid were collected at various time points and analyzed by liquid chromatography and mass spectroscopy. The removed sample volume was replaced by demineralized water. This dilution effects were accounted in the final determination of the permeation fluxes.

The mark [1] stands for this setting: Group 1 (control): untreated nails, 9% w/w terbinafine lacquer once a day, dissolvent ethanol, 32° C.
Setting [2] is: Group 2: laser pretreated nails (400 partial orifices/cm^2), 10% w/w terbinafine in ethanol once a day, protective layer 9% w/w terbinafine lacquer.
Where [3] appears, read: Group 3: laser pretreated nails (400 partial orifices/cm^2), 10% w/w terbinafine in ethanol once a day, protective layer lacquer without terbinafine.

Take `CN(C/C=C/C#CC(C)(C)C)Cc1cccc2ccccc12` [terbinafine]: the “Permeation Fluxes” value is 4.34 ng/cm^2/h (Group 1 (control): untreated nails, 9% w/w terbinafine lacquer once a day, dissolvent ethanol); 149.6 ng/cm^2/h (Group 2: laser pretreated nails, 10% w/w terbinafine in ethanol once a day, protective layer 9% w/w terbinafine lacquer); 23.6 ng/cm^2/h (Group 3: laser pretreated nails, 10% w/w terbinafine in ethanol once a day, protective layer lacquer without terbinafine). Moreover, the “Mean value of terbinafine concentration in the 5 mL receptor chamber of the Franz cell, Day 3” value (from here on “Mean value of terbinafine concentration … Day 3”) under setting [1] was 82.4 ng/mL; the “Mean value of terbinafine concentration … Day 3” value under setting [2] was determined as 305.2 ng/mL; the “Mean value of terbinafine concentration … Day 3” value under setting [3] stood at 94.5 ng/mL. Further, the “Mean value of terbinafine concentration in the 5 mL receptor chamber of the Franz cell, Day 5” value reads like this: under setting [1], 115.1 ng/mL; under setting [2], 1432.9 ng/mL; under setting [3], 272.6 ng/mL. The “increase in the permeation fluxes as compared to the control group (group 1)” value runs as follows: (Group 2 (protective layer also contains terbinafine) vs group 1) 34 fold; (Group 3 (protective layer does not contain terbinafine) vs group 1) 5 fold.
